Where two headings read alike, the source gives them in different places.
What was measured:
human RCC CaKi-2 cells = assay: MTT assay of CaKi-2 cell growth, ODN plus taxol; assay type: cell-based; conditions: CAKI-2, CaKi-2 cells
Description: (§1) Immunohistochemical staining was used to characterize TRPM-2 expression in 17 RCC and normal kidney tissues obtained from radical nephrectomy specimens. TRPM-2 expression in human renal cancer cell lines ACHN, CaKi-1 and CaKi-2 was evaluated by Northern and Western blot analyses. Northern blot analysis was used to assess changes in TRPM-2 mRNA expression after antisense TRPM-2 ODN treatment. The effects of combined antisense TRPM-2 ODN and taxol treatment on CaKi-2 cell growth was examined using a MTT assay (Zellweger et al., Neoplasia 3: 360-367 (2001)).

human TRPM-2 mRNA = assay: TRPM-2 mRNA expression in PC-3 and TRPM-2 transfected LNCaP cells; assay type: cell-based
Description: The sequences of these ten ODNs are set forth in the attached Sequence Listing as Seq. ID. Nos. 3-12. The ten human antisense ODNs were evaluated using TRPM-2 transfected LNCaP cells and human prostate cancer PC-3 cells for their ability to inhibit expression of TRPM-2 mRNA. […] ID Nos. 4, 5, and 12. Sequence ID No. 5 corresponds to the sequence used by Sensibar, et al. that produced inhibition of TRPM-2 expression in LNCaP cells, and is complementary to the first 21 bases of the TRPM-2 mRNA. […] ID No. 4. Common to all of the effective sequences is an overlap with either the initiation or termination sites of the TRPM-2 mRNA. Thus, it was shown that inhibition of expression of TRPM-2 may be accomplished by the administration of antisense ODNs, particularly antisense ODNs which are complementary to a region of the TRPM-2 mRNA spanning either the translation initiation site or the termination site.
To identify appropriate antisense TRPM-2 ODN sequences for use in human therapy, antisense ODN sequences directed against 10 different sites of the human TRPM-2 gene (FIG. 2, Seq. ID Nos. 3-12) were synthesized and tested for their ability to decrease TRPM-2 gene expression in human prostate cancer PC-3 and transfected LNCaP cells that overexpress TRPM-2 using the same treatment protocol described in Example 2. As shown, sequences 4, 5 and 12 are active for reduction of TRPM-2 expression. These three sequences overlap or are immediately adjacent to the translation initiation or termination sites.

Shionogi cells = assay: Viability of Shionogi cells treated with chemotherapy agent plus ODN; assay type: cell-based, mouse; conditions: antisense Bcl-2 ODN added to antisense TRPM-2 ODN and taxol
Description: Shionogi cells maintained in vitro were treated with varying amounts of taxol alone or in combination with 500 nM antisense TRPM-2 ODN (Seq. ID. No. 1) or the mismatch control (Seq. ID No. 2). The cells were treated twice, as described in Example 2, and the percentage of viable cells remaining was determined. As shown, the inclusion of antisense TRPM-2 ODN shifted the dose-response curve to the left, lowering the IC50 by a factor of 5 to 10.
The experiment of Example 3 was repeated, with the addition of antisense Bcl-2 ODN (Seq. ID. No. 13) or a mismatch Bcl-2 ODN (Seq. ID. No. 14) in various combinations with antisense/mismatch TRPM-2 ODN and taxol. […] Thus, the targeting of additional anti-apoptotic agents appears to provide therapeutic benefits.

TRPM-2 = conditions: cited from earlier work
TRPM-2 mRNA [1] = assay: Northern blot of TRPM-2 expression in CaKi-2 cells; assay type: cell-based, human
Description: as §1

[2] = Side effects in Shionogi tumor mice; assay type: in vivo, mouse; conditions: 12.5 mg/kg i.p. once daily for 40 days
Description: Mice were randomly selected for treatment with murine phosphorothioate antisense TRPM-2 ODN (Seq. ID No. 1) or a mismatch control (Seq. ID No. 2) which is two bases different in sequence from the antisense TRPM-2 ODN. Each experimental group consisted of 7 mice. One day after castration, 12.5 mg/kg of antisense TRPM-2 or mismatch control ODN dissolved in phosphate buffered saline were injected intraperitoneally once daily into each mouse of 40 days. Tumor volume was measured twice weekly, and calculated by the formula length×width×depth×0.5236. Gleave et al., Cancer Res. 52: 1598-1605 (1992). Data points were reported as average tumor volumes±standard deviation.

TRPM-2 mRNA [3] = assay: Northern blot of TRPM-2 mRNA in Shionogi tumor cells in vitro; assay type: cell-based, mouse; conditions: varying ODN concentrations with lipofectin, treated twice over two days
Description: The sequence selectivity of the antisense TRPM-2 ODN (Seq. ID. No. 1) was confirmed by comparing expression levels of TRPM-2 mRNA in Shionogi tumor cells maintained in vitro, after treatment with the varying levels of antisense TRPM-2 ODN or a mismatch control (Seq. ID. No. 2). To facilitate uptake of the ODNs into the cells, the ODNs were formulated in a cationic lipid carrier (Lipofectin, (Life Technologies, Inc.)). Cells were treated twice over a period of two days using the following protocol. Cells were preincubated for 20 minutes with 4 μg/ml of lipofectin in serum free OPTI-MEM (Life Technologies, Inc.) and then incubated with the medium containing the selected concentration of ODN and lipofectin for four hours. The medium was then replaced with the standard culture medium.
The amount of TRPM-2 mRNA in the cells was evaluated using Northern blot analysis. […] In contrast, TRPM-2 mRNA levels were not affected by the mismatch ODN (Seq. ID. No. 2) at any of the employed concentrations. Thus, the affect of antisense TRPM-2 ODN is apparently sequence specific.

Q: With `CC(=O)O[C@H]1C(=O)[C@@]2(C)[C@H]([C@H](OC(=O)c3ccccc3)[C@]3(O)C[C@H](OC(=O)[C@H](O)[C@@H](NC(=O)c4ccccc4)c4ccccc4)C(C)=C1C3(C)C)[C@]1(OC(C)=O)CO[C@@H]1C[C@@H]2O` [taxol] as the compound, how does the IC50 (human RCC CaKi-2 cells; with antisense TRPM-2 ODN) read?
A: Its IC50 is 50 nM.

Q: What about the IC50 (human RCC CaKi-2 cells; with mismatch control ODN) of the same compound?
A: The IC50 was 500 nM.

Q: What does the source list for “Seq. ID No. 5: human antisense phosphorothioate ODN complementary to the first 21 bases of the TRPM-2 mRNA (ATTGTCTGAGACCGTCTGGTC; DNA, all phosphorothioate, methylation of C not given here)”?
A: inhibition of TRPM-2 mRNA expression (human TRPM-2 mRNA): best results; inhibition of TRPM-2 mRNA expression (human TRPM-2 mRNA; listed as 5): active

Q: Which “inhibition of TRPM-2 mRNA expression” value (human TRPM-2 mRNA) does the source give for “Seq. ID No. 12: human antisense phosphorothioate ODN overlapping or adjacent to translation initiation or termination site of TRPM-2 mRNA (GCTGGGCGGAGTTGGGGGCCT; DNA, all phosphorothioate, methylation of C not given here)” here?
A: The value was “best results”.

Q: What about the “inhibition of TRPM-2 mRNA expression” value (human TRPM-2 mRNA; listed as 12) of the same compound?
A: The value was “active”.

Q: With “antisense Bcl-2 ODN: antisense Bcl-2 ODN (Seq. ID. No. 13) (antisense TCTCCCGGCTTGCGCCAT; listed as DNA, chemistry not given here)” as the compound, how does the “cytotoxic effects of taxol in combination with antisense TRPM-2 ODN and antisense Bcl-2 ODN” value (Shionogi cells) read?
A: The value was “further enhanced the cytotoxic effects of taxol”.

Q: With “antisense molecule corresponding to the bases 1-21 of the TRPM-2 sequence: antisense molecule of Sensibar et al.; Seq. ID No. 5 corresponds to its sequence (antisense ATTGTCTGAGACCGTCTGGTC; listed as DNA, chemistry not given here)” as the compound, how does the apoptotic cell death (TRPM-2; LNCaP cells exposed to TNFα) read?
A: Its apoptotic cell death is “increase in apoptotic cell death”.

Q: What about the “expression of TRPM-2” value (TRPM-2; transfected LNCaP cells) of the same compound?
A: Its value is “substantial reduction in expression of TRPM-2”.

Q: For “mismatch control ODN: mismatch control two bases different in sequence from the antisense TRPM-2 ODN (DNA GCACAGCAGCAGGATCTTCAT; DNA, backbone and methylation of C not given here)”, which “TRPM-2 expression in CaKi-2 cells” value (TRPM-2 mRNA [1]) is on record?
A: Its value is “not”.

Q: And the side effects [2]?
A: Its side effects is “No side effects”.

Q: And the “TRPM-2 mRNA levels in Shionogi cells” value (TRPM-2 mRNA [3])?
A: The value was “not affected”.

Source: patent US6900187B2, “TRPM-2 antisense therapy using an oligonucleotide having 2′-O-(2-methoxy)ethyl modifications” (The University of British Columbia, priority 1999, dated 2005)
